Test results published in ChEMBL document CHEMBL1201862, “PubChem BioAssay data set” (2004).
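Exposure lasted 48 hours, with cells grown in 96-well plates and compounds tested at five concentrations. Here, GI50 denotes the concentration required for 50% inhibition of growth.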 Active and inactive are the calls of the source. No stated cut-off is given here; in the data, active = GI50 up to about 1.1 µM and inactive = higher.

Legend:
Assay in all cases: NCI-60 cell line screen, 48 h
786-0 = tested on: 786-0
A498 = tested on: A498
A549 = tested on: A549
ACHN = tested on: ACHN
BT-549 = tested on: BT-549
CAKI-1 = tested on: CAKI-1
CCRF-CEM = tested on: CCRF-CEM
COLO 205 = tested on: COLO 205
DU-145 = tested on: DU-145
EKVX = tested on: EKVX
HCC 2998 = tested on: HCC 2998
HCT-116 = tested on: HCT-116
HCT-15 = tested on: HCT-15
HL-60 = tested on: HL-60
HOP-62 = tested on: HOP-62
HT-29 = tested on: HT-29
Hs-578T = tested on: Hs-578T
IGROV-1 = tested on: IGROV-1
K562 = tested on: K562
KM12 = tested on: KM12
LOX IMVI = tested on: LOX IMVI
M14 = tested on: M14
MCF7 = tested on: MCF7
MDA-MB-231 = tested on: MDA-MB-231
MDA-MB-435 = tested on: MDA-MB-435
MDA-N = tested on: MDA-N
MOLT-4 = tested on: MOLT-4
Malme-3M = tested on: Malme-3M
NCI-H226 = tested on: NCI-H226
NCI-H23 = tested on: NCI-H23
NCI-H460 = tested on: NCI-H460
NCI-H522 = tested on: NCI-H522
NCI/ADR-RES = tested on: NCI/ADR-RES
OVCAR-3 = tested on: OVCAR-3
OVCAR-4 = tested on: OVCAR-4
OVCAR-5 = tested on: OVCAR-5
OVCAR-8 = tested on: OVCAR-8
PC-3 = tested on: PC-3
RPMI-8226 = tested on: RPMI-8226
RXF 393 = tested on: RXF 393
SF-268 = tested on: SF-268
SF-295 = tested on: SF-295
SF-539 = tested on: SF-539
SK-MEL-28 = tested on: SK-MEL-28
SK-MEL-2 = tested on: SK-MEL-2
SK-MEL-5 = tested on: SK-MEL-5
SK-OV-3 = tested on: SK-OV-3
SN12C = tested on: SN12C
SNB-19 = tested on: SNB-19
SNB-75 = tested on: SNB-75
SR = tested on: SR
SW-620 = tested on: SW-620
T47D = tested on: T47D
U-251 = tested on: U-251
UACC-257 = tested on: UACC-257
UACC-62 = tested on: UACC-62
UO-31 = tested on: UO-31
HOP-92 = tested on: HOP-92
TK-10 = tested on: TK-10

Compound: CCC/N=C(/NC(=O)c1ccc(Cl)cc1)SC
- GI50 (786-0): > 100 µM (inactive)
- GI50 (A498): 27.4 µM (inactive)
- GI50 (A549): > 100 µM (inactive)
- GI50 (ACHN): 39.8 µM (inactive)
- GI50 (BT-549): 25.5 µM (inactive)
- GI50 (CAKI-1): > 100 µM (inactive)
- GI50 (CCRF-CEM): > 100 µM (inactive)
- GI50 (COLO 205): > 100 µM (inactive)
- GI50 (DU-145): > 100 µM (inactive)
- GI50 (EKVX): > 100 µM (inactive)
- GI50 (HCC 2998): > 100 µM (inactive)
- GI50 (HCT-116): > 100 µM (inactive)
- GI50 (HCT-15): 47.9 µM
- GI50 (HL-60): 58.7 µM (inactive)
- GI50 (HOP-62): > 100 µM (inactive)
- GI50 (HT-29): 97.3 µM (inactive)
- GI50 (Hs-578T): 12.1 µM (inactive)
- GI50 (IGROV-1): > 100 µM (inactive)
- GI50 (K562): 44.1 µM (inactive)
- GI50 (KM12): > 100 µM (inactive)
- GI50 (LOX IMVI): > 100 µM (inactive)
- GI50 (M14): > 100 µM (inactive)
- GI50 (MCF7): 75.9 µM (inactive)
- GI50 (MDA-MB-231): > 100 µM (inactive)
- GI50 (MDA-MB-435): > 100 µM (inactive)
- GI50 (MDA-N): > 100 µM (inactive)
- GI50 (MOLT-4): 58.7 µM (inactive)
- GI50 (Malme-3M): > 100 µM (inactive)
- GI50 (NCI-H226): 43.1 µM (inactive)
- GI50 (NCI-H23): 46.3 µM (inactive)
- GI50 (NCI-H460): 90.6 µM (inactive)
- GI50 (NCI-H522): 52 µM (inactive)
- GI50 (NCI/ADR-RES): > 100 µM (inactive)
- GI50 (OVCAR-3): 0.0473 µM (active)
- GI50 (OVCAR-4): 50.9 µM (inactive)
- GI50 (OVCAR-5): > 100 µM (inactive)
- GI50 (OVCAR-8): > 100 µM (inactive)
- GI50 (PC-3): 80.5 µM (inactive)
- GI50 (RPMI-8226): 26.5 µM (inactive)
- GI50 (RXF 393): > 100 µM (inactive)
- GI50 (SF-268): 88.9 µM (inactive)
- GI50 (SF-295): > 100 µM (inactive)
- GI50 (SF-539): > 100 µM (inactive)
- GI50 (SK-MEL-28): > 100 µM (inactive)
- GI50 (SK-MEL-2): > 100 µM (inactive)
- GI50 (SK-MEL-5): 48.6 µM (inactive)
- GI50 (SK-OV-3): > 100 µM (inactive)
- GI50 (SN12C): > 100 µM (inactive)
- GI50 (SNB-19): 17.6 µM (inactive)
- GI50 (SNB-75): 11.4 µM (inactive)
- GI50 (SR): 36.8 µM (inactive)
- GI50 (SW-620): > 100 µM (inactive)
- GI50 (T47D): 65.9 µM (inactive)
- GI50 (U-251): > 100 µM (inactive)
- GI50 (UACC-257): 74.5 µM (inactive)
- GI50 (UACC-62): > 100 µM (inactive)
- GI50 (UO-31): 15 µM (inactive)

Compound: O=C1c2ccccc2NC(=S)[C@@H]2CCCN12
- GI50 (786-0): > 100 µM (inactive)
- GI50 (A498): > 100 µM (inactive)
- GI50 (A549): > 100 µM (inactive)
- GI50 (ACHN): > 100 µM (inactive)
- GI50 (BT-549): > 100 µM (inactive)
- GI50 (CAKI-1): > 100 µM (inactive)
- GI50 (CCRF-CEM): > 100 µM (inactive)
- GI50 (COLO 205): > 100 µM (inactive)
- GI50 (DU-145): > 100 µM (inactive)
- GI50 (EKVX): > 100 µM (inactive)
- GI50 (HCC 2998): > 100 µM (inactive)
- GI50 (HCT-116): > 100 µM (inactive)
- GI50 (HCT-15): > 100 µM
- GI50 (HOP-62): > 100 µM (inactive)
- GI50 (HOP-92): > 100 µM (inactive)
- GI50 (HT-29): > 100 µM (inactive)
- GI50 (Hs-578T): > 100 µM (inactive)
- GI50 (IGROV-1): > 100 µM (inactive)
- GI50 (K562): > 100 µM (inactive)
- GI50 (KM12): > 100 µM (inactive)
- GI50 (LOX IMVI): > 100 µM (inactive)
- GI50 (M14): > 100 µM (inactive)
- GI50 (MCF7): > 100 µM (inactive)
- GI50 (MDA-MB-231): > 100 µM (inactive)
- GI50 (MDA-MB-435): > 100 µM (inactive)
- GI50 (MDA-N): > 100 µM (inactive)
- GI50 (MOLT-4): > 100 µM (inactive)
- GI50 (Malme-3M): > 100 µM (inactive)
- GI50 (NCI-H226): > 100 µM (inactive)
- GI50 (NCI-H23): > 100 µM (inactive)
- GI50 (NCI-H460): > 100 µM (inactive)
- GI50 (NCI-H522): > 100 µM (inactive)
- GI50 (NCI/ADR-RES): > 100 µM (inactive)
- GI50 (OVCAR-3): > 100 µM (inactive)
- GI50 (OVCAR-4): > 100 µM (inactive)
- GI50 (OVCAR-5): > 100 µM (inactive)
- GI50 (OVCAR-8): > 100 µM (inactive)
- GI50 (PC-3): > 100 µM (inactive)
- GI50 (RPMI-8226): > 100 µM (inactive)
- GI50 (RXF 393): > 100 µM (inactive)
- GI50 (SF-268): > 100 µM (inactive)
- GI50 (SF-295): > 100 µM (inactive)
- GI50 (SF-539): > 100 µM (inactive)
- GI50 (SK-MEL-28): > 100 µM (inactive)
- GI50 (SK-MEL-2): > 100 µM (inactive)
- GI50 (SK-MEL-5): > 100 µM (inactive)
- GI50 (SK-OV-3): > 100 µM (inactive)
- GI50 (SN12C): > 100 µM (inactive)
- GI50 (SNB-19): > 100 µM (inactive)
- GI50 (SNB-75): > 100 µM (inactive)
- GI50 (SR): > 100 µM (inactive)
- GI50 (SW-620): > 100 µM (inactive)
- GI50 (T47D): > 100 µM (inactive)
- GI50 (TK-10): > 100 µM (inactive)
- GI50 (U-251): > 100 µM (inactive)
- GI50 (UACC-257): > 100 µM (inactive)
- GI50 (UACC-62): > 100 µM (inactive)
- GI50 (UO-31): > 100 µM (inactive)
